Among the data in patent US7713994B2 (Wyeth LLC, priority 2005, dated 2010) are IC50 values, retold here.

SMILES strings stand for the structures.

The assay deals with T1, cyclin D1/cdk 4 enzyme (Homo sapiens, UniProt P11802).
T1 construct: made in house; host or cells: Sf9 insect cells, recombinant baculovirus
T1 sequence (P11802 whole entry, species assumed): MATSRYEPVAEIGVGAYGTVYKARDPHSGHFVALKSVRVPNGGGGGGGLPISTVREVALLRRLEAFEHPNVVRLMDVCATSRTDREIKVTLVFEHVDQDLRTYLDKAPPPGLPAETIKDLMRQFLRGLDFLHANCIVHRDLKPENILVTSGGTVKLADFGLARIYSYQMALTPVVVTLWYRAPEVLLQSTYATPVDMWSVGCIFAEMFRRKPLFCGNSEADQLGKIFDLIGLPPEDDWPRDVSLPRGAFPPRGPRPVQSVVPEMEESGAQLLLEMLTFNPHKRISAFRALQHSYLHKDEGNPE
T1 sequence (P24385 whole entry partner, species assumed): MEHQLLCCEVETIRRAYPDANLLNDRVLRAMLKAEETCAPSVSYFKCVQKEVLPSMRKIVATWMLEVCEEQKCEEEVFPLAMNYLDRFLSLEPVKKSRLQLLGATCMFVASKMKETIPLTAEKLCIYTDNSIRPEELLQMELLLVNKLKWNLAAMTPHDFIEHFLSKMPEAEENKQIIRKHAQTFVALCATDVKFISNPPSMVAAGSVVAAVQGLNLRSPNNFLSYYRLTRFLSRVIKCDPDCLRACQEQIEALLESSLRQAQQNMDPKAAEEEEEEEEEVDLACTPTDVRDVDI
The assay is described as follows: CDK4 ELISA kinase assay (phospho-Rb ser 795 detection). The class given is biochemical. To be noted: In Vitro Enzyme Assay, cyclin D1/cdk 4, read-out: CDK4 IC50. As to the method:
• 1. High-binding ELISA microtiter plates (Costar) were coated with 40 μl of the kinase substrate (GST fusion of C-terminal fragment of the retinoblastoma susceptibility gene product) diluted to 10 μg/ml in tris-buffered saline (TBS), overnight at 4° C. • 2. Non-specific binding sites were blocked for 1 hour at 4° C. with Superblock in TBS (Pierce), and the plates rinsed with water. • 3. For the screen, 1.5 μl of test compound (200 μg/ml stock in 20% DMSO/20 mM HEPES, pH 7.5) was added to each well. Final dose of the test compound in the assay was 10 ug/ml. […] The kinase reaction (30 μl) was dispensed into each well. Reactions contained 200 μM ATP, 0.5 mg/ml bovine serum albumin (BSA; Sigma), and 0.5 μl partially purified cyclin D1/cdk 4 enzyme*. The enzyme complex is expressed in insect cells (Sf9) infected with recombinant baculovirus and partially purified using ammonium sulfate fractionation. Reaction volumes were adjusted to 30 μl with kinase assay buffer (50 mM HEPES, pH 7.5, 10 mM MgCl2, 5% glycerol, 10 mM 2-mercaptoethanol). • *: For CDK2 assay, 1.0 μl cyclin E/CDK2 enzyme (diluted 1:1000 in kinase assay buffer) was used. The enzyme is isolated from insect cells (Sf9) infected with recombinant baculovirus and partially purified using ammonium sulfate fractionation. For CDK1 assay, 0.08 μl cyclin B/CDK1 enzyme [New England BioLabs; the enzyme is isolated from insect cells (Sf9) infected with recombinant baculovirus carrying human cdc 2 and human cyclin B] was used.
[…] • 5. Plates were incubated at 30° C. for 1 hour. • 6. The reaction mixture was removed by aspiration and replaced with 250 μl TBS containing 0.1% Tween-20 and 5% nonfat dry milk (blocking buffer). The plates were incubated at 4° C. for 1 hour. • 7. The blocking buffer was removed and replaced with 50 μl of the primary antibody [anti-phospho-Rb ser 795 (New England BioLabs) diluted 1:1000 in blocking buffer]. Incubation was at 4° C. for 16-20 hours. • 8. The wells were rinsed 3 times with 250 μl of TBS containing 0.1% Tween-20 followed by the addition of 50 μl of secondary antibody [anti-rabbit IgG conjugated to horseradish peroxidase (Amersham Life Science) diluted 1:1000 in blocking buffer]. • 9. After a 1 hour incubation at room temperature, the wells were rinsed 3 times with 250 μl of TBS/0.1% Tween 20. • 10. TMB (3,3′,5,5′-tetramethylbenzidine dihydrochloride) substrate solution (100 μl; Pierce) was added to each well and the color development reaction allowed to proceed 5-10 minutes at room temperature with shaking. The reaction was stopped by the addition of 2N sulfuric acid (100 μl) and the absorbance values read at 450 nm in a microplate reader (Molecular Devices). Analysis of Results: • 1. The percentage of the absorbance value in wells containing the test compound relative to control wells (no test agent) was determined. • 2. IC50 values of selected compounds were determined from inhibition curves, after subtracting background values (no substrate).
In general terms: ELISA stands for enzyme-linked immunosorbent assay.
For orientation: IC50 means the concentration that inhibits the measured activity by half. As to `CS(=O)(=O)Nc1cccc(CNC=C2C(=O)NC(=O)c3ccccc32)c1` [Example 581, N-(3-{[(1,3-Dioxo-2,3-dihydro-1H-isoquinolin-4-ylidenemethyl)-amino]-methyl}-phenyl)-methanesulfonamide], the IC50 was found to be 23.6 µM. On to `O=C1NC(=O)c2ccccc2C1=CNCc1cccc(NS(=O)(=O)CC(F)(F)F)c1` [Example 582, 2,2,2-Trifluoro-ethanesulfonic acid (3-{[(1,3-dioxo-2,3-dihydro-1H-isoquinolin-4-ylidenemethyl)-amino]-methyl}-phenyl)-amide], for which the IC50 is 9.6 µM. Consider `CCS(=O)(=O)Nc1cccc(CNC=C2C(=O)NC(=O)c3ccccc32)c1` [Example 583, Ethanesulfonic acid (3-{[(1,3-dioxo-2,3-dihydro-1H-isoquinolin-4-ylidenemethyl)-amino]-methyl}-phenyl)-amide], for which the IC50 was found to be 17.9 µM. As to `CCCS(=O)(=O)Nc1cccc(CNC=C2C(=O)NC(=O)c3ccccc32)c1` [Example 584, Propane-1-sulfonic acid (3-{[(1,3-dioxo-2,3-dihydro-1H-isoquinolin-4-ylidenemethyl)-amino]-methyl}-phenyl)-amide], the IC50 is 19.4 µM. Turning to `CC(=O)Nc1cccc(CNC=C2C(=O)NC(=O)c3ccccc32)c1` [Example 585, N-(3-{[(1,3-Dioxo-2,3-dihydro-1H-isoquinolin-4-ylidenemethyl)-amino]-methyl)-phenyl)-acetamide], the IC50 was 42.5 µM. Consider `O=C1NC(=O)c2ccccc2C1=CNCc1cccc(NC(=O)C2CC2)c1` [Example 586, Cyclopropanecarboxylic acid (3-{[(1,3-dioxo-2,3-dihydro-1H-isoquinolin-4-ylidenemethyl)-amino]-methyl}-phenyl)-amide], for which the IC50 stood at 31.3 µM. As to `O=C1NC(=O)c2ccccc2C1=CNCc1cccc(NC(=O)C2CCC2)c1` [Example 587, Cyclobutanecarboxylic acid (3-{[(1,3-dioxo-2,3-dihydro-1H-isoquinolin-4-ylidenemethyl)-amino]-methyl}-phenyl)-amide], the IC50 was determined as 43.5 µM. As for `O=C1NC(=O)c2ccccc2C1=CNCc1ccc(NS(=O)(=O)c2cccs2)cc1` [Example 588, Thiophene-2-sulfonic acid (4-{[(1,3-dioxo-2,3-dihydro-1H-isoquinolin-4-ylidenemethyl)-amino]-methyl}-phenyl)-amide], the IC50 amounted to 37.3 µM. As to `CS(=O)(=O)Nc1ccc(CNC=C2C(=O)NC(=O)c3ccccc32)cc1` [Example 589], the IC50 was found to be 36.4 µM.

Consider `O=C1NC(=O)c2ccccc2C1=CNCc1ccc(NS(=O)(=O)Cc2ccccc2)cc1` [Example 590, N-(4{[(1,3-Dioxo-2,3-dihydro-1H-isoquinolin-4-ylidenemethyl)-amino]-methyl}-phenyl)-C-phenyl-methanesulfonamide], for which the concentration for half-maximal inhibition (IC50) turned out to be 38.5 µM. `CCCS(=O)(=O)Nc1ccc(CNC=C2C(=O)NC(=O)c3ccccc32)cc1` [Example 592, Propane-1-sulfonic acid (4{[(1,3-dioxo-2,3-dihydro-1H-isoquinolin-4-ylidenemethyl)-amino]-methyl}-phenyl)-amide]: the half-maximal inhibitory concentration (IC50) is 29.9 µM. For the compound `CCN1CCN(c2ccc(NC=C3C(=O)NC(=O)c4ccccc43)cc2)CC1` [Example 595, 4-{[4-(4-Ethyl-piperazin-1-yl)-phenylamino]-methylene}-4H-isoquinoline-1,3-dione], the IC50 was 27.4 µM. Regarding `N#CCN1CCN(c2ccc(N/C=C3\C(=O)NC(=O)c4ccccc43)cc2)CC1` [Example 596, (4-{4-[(1,3-Dioxo-2,3-dihydro-1H-isoquinolin-4-ylidenemethyl)-amino]-phenyl}-piperazin-1-yl)-acetonitrile], the IC50 was determined as 27.7 µM. Next, `C=CCN1CCN(c2ccc(NC=C3C(=O)NC(=O)c4ccccc43)cc2)CC1` [Example 597, 4-{[4-(4-Allyl-piperazin-1-yl)-phenylamino]-methylene}-4H-isoquinoline-1,3-dione]: 39.2 µM; `O=C1NC(=O)c2ccccc2C1=CNc1ccc(N2CCN(CCO)CC2)cc1` [Example 598, 4-({4-[4-(2-Hydroxy-ethyl)-piperazin-1-yl]-phenylamino}-methylene)-4H-isoquinoline-1,3-dione]: 33.1 µM; `CCN(CC)CCN1CCN(c2ccc(NC=C3C(=O)NC(=O)c4ccccc43)cc2)CC1` [Example 599, 4-({4-[4-(2-Diethylamino-ethyl)-piperazin-1-yl]-phenylamino}-methylene)-4H-isoquinoline-1,3-dione]: 39.7 µM. Next, `CC(C)N1CCN(c2ccc(NC=C3C(=O)NC(=O)c4ccccc43)cc2)CC1` [Example 600, 4-{[4-(4-Isopropyl-piperazin-1-yl)-phenylamino]-methylene}-4H-isoquinoline-1,3-dione]: 23.1 µM; `O=C1NC(=O)c2ccccc2C1=CNc1ccc(N2CCN(C3CCCC3)CC2)cc1` [Example 601, 4-{[4-(4-Cyclopentyl-piperazin-1-yl)-phenylamino]-methylene}-4H-isoquinoline-1,3-dione]: 12 µM. In the case of `O=C1NC(=O)c2ccccc2C1=CNc1ccc(N2CCN(CC3CCC3)CC2)cc1` [Example 602, 4-{[4-(4-Cyclobutylmethyl-piperazin-1-yl)-phenylamino]-methylene}-4H-isoquinoline-1,3-dione], the IC50 was 21.5 µM.

Consider `O=C1NC(=O)c2ccccc2C1=CNCc1cccc(NCC(F)(F)F)c1` [Example 603, 4-{[3-(2,2,2-Trifluoro-ethylamino)-benzylamino]-methylene}-4H-isoquinoline-1,3-dione], for which the IC50 turned out to be 48.3 µM.

For the compound `CNc1ccc(CN/C=C2\C(=O)NC(=O)c3ccccc32)cc1` [Example 604, 4-[(4-Methylamino-benzylamino)-methylene]-4H-isoquinoline-1,3-dione], the IC50 was 23.5 µM.

Turning to `O=C1NC(=O)c2ccccc2C1=CNc1ccc(CNS(=O)(=O)CC(F)(F)F)cc1` [Example 605, 2,2,2-Trifluoro-ethanesulfonic acid 4-[(1,3-dioxo-2,3-dihydro-1H-isoquinolin-4-ylidenemethyl)-amino]-benzylamide], the IC50 was found to be 22.1 µM. As to `CCNS(=O)(=O)c1ccc(CN/C=C2\C(=O)NC(=O)c3ccccc32)cc1` [Example 606, 4-{[(1,3-Dioxo-2,3-dihydro-1H-isoquinolin-4-ylidenemethyl)-amino]-methyl}-N-ethyl-benzenesulfonamide], the half-maximal inhibitory concentration (IC50) was found to be 21.2 µM. Consider `O=C1NC(=O)c2ccccc2C1=CNCc1ccc(S(=O)(=O)NCc2cccnc2)cc1` [Example 607, 4-{[(1,3-Dioxo-2,3-dihydro-1H-isoquinolin-4-ylidenemethyl)-amino]-methyl}-N-pyridin-3-ylmethyl-benzenesulfonamide], for which the concentration for half-maximal inhibition (IC50) amounted to 45.5 µM. For `CS(=O)(=O)NCc1ccc(NC=C2C(=O)NC(=O)c3ccccc32)cc1` [Example 612, N-{4-[(1,3-Dioxo-2,3-dihydro-1H-isoquinolin-4-ylidenemethyl)-amino]-benzyl}-methanesulfonamide], the IC50 amounted to 48.9 µM. Regarding `CCS(=O)(=O)NCc1ccc(N/C=C2\C(=O)NC(=O)c3ccccc32)cc1` [Example 613, Ethanesulfonic acid 4-[(1,3-dioxo-2,3-dihydro-1H-isoquinolin-4-ylidenemethyl)-amino]-benzylamide], the IC50 was determined as 33.1 µM.
